From PMC7020459, “Antioxidant and Enzyme Inhibitory Properties of the Polyphenolic-Rich Extract from an Ancient Apple Variety of Central Italy (Mela Rosa dei Monti Sibillini)” (Plants, 2019)

How the values were obtained:
[1] = ABTS radical cation decolorization assay; details: concentration causing 50% decrease in initial ABTS concentration
Procedure: (§1) The in vitro antioxidant activity of the different samples was assessed through three assays by means of standard methods using a SPECTROstar Omega (BMG LABTECH GmbH, Ortenberg, Germany) microplate reader. For the preparation of the stock solution, around 10 ± 1 mg of the different samples were diluted in 1 mL of methanol in an Eppendorf. Then, 100 µL of this stocked solution was diluted with 900 µL of methanol for the analyses. All analyses were conducted at least twice.
The total radical scavenging activity was measured using 2, 2′-azino-bis (3-ethylbenzothiazoline-6-sulphonic acid) (ABTS) assay. The ABTS^•+ solution was freshly prepared by the oxidation of ABTS (10 mg) by MnO2 (0.75 g) in the presence of distilled water (4 mL), followed by 30 min of incubation away from light at room temperature. The working solution was obtained by filtration and dilution with methanol of the previous mixture to give an absorbance of AU 1 at 734 nm. The extract concentrations used were the same as for the DPPH assay, and 200 µL of the ABTS solution was added to the wells. After 15 min of incubation, the absorbance of each well was determined at 734 nm. Trolox (6-hydroxy-2,5,7,8-tetramethylchroman-2-carboxylic acid) was the reference compound used in both DPPH and ABTS assays. […]

[2] = DPPH free radical scavenging assay; details: concentration causing 50% decrease in initial DPPH concentration
Procedure: as §1
The free radical scavenging activity was evaluated using 1, 1-diphenyl-2-picrylhydrazyl (DPPH) on microplate analytical assay, as described by Beghelli et al. and Censi et al.. […] The absorbance of the wells was measured at 517 nm with a microplate reader against a blank prepared using methanol in addition to the DPPH reagent to get rid of any inherent solvent activity.
The total radical scavenging activity was measured using 2, 2′-azino-bis (3-ethylbenzothiazoline-6-sulphonic acid) (ABTS) assay. […] The working solution was obtained by filtration and dilution with methanol of the previous mixture to give an absorbance of AU 1 at 734 nm. […] After 15 min of incubation, the absorbance of each well was determined at 734 nm. […]

[3] = molecular target: T1, lipase type II from porcine pancreas (Sus scrofa, UniProt P00591); assay: lipase inhibition assay; assay type: biochemical; details: maximal inhibition reached
T1 construct: purchased Sigma-Aldrich (Madrid, Spain); host or cells: porcine pancreas
T1 sequence (P00591 1-450): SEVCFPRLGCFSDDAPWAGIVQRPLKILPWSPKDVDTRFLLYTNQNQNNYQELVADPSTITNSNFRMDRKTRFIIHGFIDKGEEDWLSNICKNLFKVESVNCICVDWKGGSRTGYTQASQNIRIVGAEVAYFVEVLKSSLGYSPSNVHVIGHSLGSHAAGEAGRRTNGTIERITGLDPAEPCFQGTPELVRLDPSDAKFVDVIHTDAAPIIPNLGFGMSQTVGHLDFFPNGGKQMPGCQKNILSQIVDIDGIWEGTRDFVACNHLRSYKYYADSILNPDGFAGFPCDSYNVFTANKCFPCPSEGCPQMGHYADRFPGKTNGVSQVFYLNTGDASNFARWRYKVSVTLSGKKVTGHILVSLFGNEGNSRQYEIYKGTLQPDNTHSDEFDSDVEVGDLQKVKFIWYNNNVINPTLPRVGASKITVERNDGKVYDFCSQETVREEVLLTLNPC
Procedure: The lipase inhibition assay was based on a previous protocol. […] Then, 20 µL of pNPB (10 mM in ethanol) was added to each well and incubated for another 15 min at 37 °C. Blanks and control wells were made.

| Structure (SMILES) | ABTS IC50 [1] [µg/mL] | DPPH IC50 [2] [µg/mL] | lipase inhibition reached [3] [%] |
| --- | --- | --- | --- |
| Cc1c(C)c2c(c(C)c1O)CCC(C)(C(=O)O)O2 (stereo not drawn) [Trolox, 6-hydroxy-2,5,7,8-tetramethylchroman-2-carboxylic acid] | 4.7 ± 0.2 | 5.3 ± 1.1 | – |
| CCCCCCCCCCC[C@@H](C[C@@H]1OC(=O)[C@H]1CCCCCC)OC(=O)[C@H](CC(C)C)NC=O [Orlistat] | – | – | 75 |
